Measurements as given in patent publication US20100130598A1, “METHODS FOR INDUCING PROGRAMMED CELL DEATH” (Novogen Research Pty Ltd., priority 2008, published 2010).

Experiments:
Bid, Bax, Beclin-1 = experiment: Western blot of cell lysates and mitochondrial fractions for Bid, Bax, Beclin-1; type: cell-based, human; settings: EOC cells
Description: Protein preparation and cellular fractionation. After drug treatment, protein was extracted and measured as previously described (Alvero et al, 2006). For separation of the cytoplasmic and mitochondrial fractions, cell pellets were processed using the ApoAlert™ Cell Fractionation Kit (BD Biosciences, San Jose, Calif.) according to the manufacturer's instructions. For separation of the cytoplasmic and nuclear fractions, pellets were processed using NE-PER Nuclear and Cytoplasmic Extraction (Pierce Biotechnology, Inc., Rockford, Ill.).
(§1) SDS-PAGE and Western blots. Cell lysates (20 μg protein) were denatured in sample buffer (2.5% SDS, 10% glycerol, 5% β-mercapto-ethanol, 0.15 M Tris (pH=6.8) and 0.01% bromophenol blue) and subjected to 12% SDS-PAGE as previously described (Kamsteeg et al, 2003). The following antibodies and concentrations were used: mouse anti-XIAP (BD, 1:1,000), rabbit anti-MAP LC3 (1:200), rabbit anti-actin (Sigma, 1:10,000), rabbit anti-phosphorylated Akt (Cell Signaling, 1:1,000), rabbit anti-Akt (Cell Signaling, 1:1000), rabbit anti-phosphorylated mTOR (Cell Signaling, 1:1000), rabbit anti-mTOR (Cell Signaling, 1:1000), rabbit anti-cytochrome c (Clontech Laboratories, Inc, Mountainview, Calif., 1:100), rabbit anti-Omi (R&D Systems, Minneapolis, Minn., 1:5000), rabbit anti-Bid (Cell Signaling, 1:1000), mouse anti-Bax (BD Pharmingen, 1:250), rabbit anti-VDAC (Sigma Aldrich, 1:2000), mouse anti-Bcl2 (BD Pharmingen, 1:500), rabbit anti-AIF (Sigma Aldrich, 1:1000), rabbit anti-EndoG (Sigma Aldrich, 1:1000), mouse anti-topoisomerase I (BD Pharmingen, 1:10,000). Proteins were visualized using enhanced chemiluminescence (Pierce, Rockford Ill.).

[1] = tested on: phospho-S6 kinase (p-S6K); experiment: Western blot of lysed xenograft tumors for p-S6k; type: in vivo, NCR nude mice; settings: tumors from treated animals vs vehicle control
Description: as §1
Mouse xenograft studies. […] Tumor size was determined by caliper measurements and anti-tumor activity was analyzed with respect to maximal tumor inhibition (treated/control, T/C) as described previously (Kamsteeg et al, 2003).

[2] = tested on: Caspase 2, 3 and 9 in PANC-1 cells; experiment: In situ caspase activity by flow cytometry, PANC-1; type: cell-based, human; settings: PANC-1, 10 μM, after 48 hrs
Description: (§2) Cells. Human pancreatic cell lines HPAC, MIAPaCa-2 and PANC-1 were obtained from the ATCC. (Manassas, Va.). The cells were maintained in DMEM media with Gln and high glucose (Mediatech, Manassas, Va.) with 10% fetal bovine serum (FBS, HyClone, Logan, Utah) and pencillin/streptomycin.
Caspase Activity After 48 h treatment with 10 μM Compound 10, HPAC, MIAPaCa-2 and PANC-1 cells were harvested by trypsinization and resuspended in DMEM media with 10% FBS. The cells were incubated with caspase substrates for 1 h at 37° C., 5% CO2, then probed with Annexin-V-Cy5 and sytox blue. Caspase +ve cells were gated as shown in the histograms and these cells are indicated on the Annexin-V-Cy5/sytox blue spectra as blue cells. In situ caspase activity was assayed using fluorescent substrates. For Caspase 2, FITC-VDVAD-fmk (Biovision K182-100), for Caspase 3, FITC-DEVD-fmk (K183-100) and for Caspase 9, FITC-LEHD-fmk (K199-100) was used. These substrates bind irreversibly to their respective activated caspases, and caspase activation was quantitated by flow cytometry. […] Caspase activation, apoptosis and necrosis were measured simultaneously using a violet, blue and red laser in a BD LSRII flow cytometer.

PANC-1 cells = experiment: Cell cycle analysis by FACS (PI), PANC-1; type: cell-based, human; settings: PANC-1, 10 μM
Description: as §2
(§3) FACS Analysis. Apoptosis was measured by FACS analysis using Annexin-V-FITC and propidium iodide (PI) (Biovision, Mountain View, Calif.) as probes (Ahn et al., 2003). Mitochondrial membrane potential was measured by FACS analysis using JC-1 (Biovision) as a probe (Ahn et al., 2003). Cell cycle was analyzed on ethanol-fixed, RNaseA-treated cells staining with PI. In each spectrum, 10,000 gated events were recorded and analyzed with a FACSCalibur (BD Biosciences. San Jose, Calif.). All experiments were done in triplicate, error bars represent one standard deviation. Caspase inhibitor I (zVAD-fmk) was obtained from Calbiochem.

MIAPaCa-2 cells = experiment: Cell cycle analysis by FACS (PI), MIAPaCa-2; type: cell-based, human; settings: MIAPaCa-2, 10 μM
Description: as §2, §3

MIAPaCa-2 = MIAPaCa-2 pancreatic cancer xenograft; type: in vivo, Balb/c nude mice; settings: MIAPaCa-2 model
Description: For xenograft studies, five week old male Balb/c nude mice were maintained on an isoflavone-free diet to remove background isoflavone levels contributed by standard feed. On the day of inoculation a suspension of MIAPaCa2 or HPAC cells was prepared in DMEM (-FBS), chilled on ice and then an equal volume of matrigel (BD) was added. Mice were inoculated subcutaneously with 3×10^6 MIAPaCa2 or HPAC cells bilaterally (midway between the axillary and inguinal region) along the dorsal surface, ensuring that cells to be injected were growing at mid-end log phase. Tumor growth was monitored over 10-15 days. Compound 10 was given orally by gavage in 1% carboxy methyl cellulose (CMC) as a vehicle. Gemcitabine was injected intraperiponeally in PBS. In combination groups animals were first dosed with Compound 10 and then dosed with gemcitabine using the respective administration schedule, dosage and route of delivery stated.

## COc1ccc(C2c3ccc(O)c(C)c3OCC2c2ccc(O)cc2)cc1 (centres unmarked) [Compound 1, 3-(4-hydroxyphenyl)-4-(4-methoxyphenyl)-8-methylchroman-7-ol]
Bid, Bax, Beclin-1; 10 μg/ml, 2 h post-treatment
  mitochondrial translocation of Bax: induces mitochondrial translocation
Bid, Bax, Beclin-1; 10 μg/ml, as early as 1 h post-treatment
  Beclin-1 translocation to the mitochondria: translocates to the mitochondria
Bid, Bax, Beclin-1; 10 μg/ml, total cell lysates
  activation of Bid: does not induce
Bid, Bax, Beclin-1; data not shown
  Beclin-1 message or protein expression (RT-PCR, whole cell lysates): no changes
[1]
  p-S6k in tumors: significant decrease

## COc1ccc(C2c3ccc(O)cc3OCC2c2ccc(O)cc2)cc1 (centres unmarked) [Compound 10, 3-(4-hydroxyphenyl)-4-(4-methoxyphenyl)chroman-7-ol]
[2]
  caspase 2, 3 and 9 activation: activated
PANC-1 cells
  time of G2/M arrest post treatment: 4 to 24 h
  time remained in G2/M arrest: at least 48 hrs
MIAPaCa-2 cells
  time of entering G2/M arrest post treatment: 24 to 48 h
MIAPaCa-2; Compound 10 100 mg/kg oral qd×12, gemcitabine 20 mg/kg q3d×4, alone or combined
  % T/C (mean terminal tumor burden): 94%
MIAPaCa-2; oral 100 mg/kg, qd×12, vs vehicle control, level similar to gemcitabine
  rate of tumor proliferation: retarded
